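Dose response: 5 concentrations. Exposure: 48 h. Format: 96-well plates. Endpoint: linear interpolation; highest concentration if not reached. TGI: total growth inhibition.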
Experiments:
Experiment in all cases: DTP human tumour cell line panel, 48 h
[1] = system: HOP-18 NSCLC
[2] = system: DMS 273 small cell lung
[3] = system: M14 melanoma
[4] = system: OVCAR-8 ovarian
[5] = system: XF 498 CNS
[6] = system: UACC-62 melanoma
[7] = system: MOLT-4 leukemia
[8] = system: TK-10 renal
[9] = system: SK-MEL-5 melanoma
[10] = system: A498 renal
[11] = system: HOP-92 NSCLC
[12] = system: KM20L2 colon
[13] = system: OVCAR-3 ovarian
[14] = system: OVCAR-5 ovarian
[15] = system: 786-0 renal
[16] = system: K-562 leukemia
[17] = system: HT29 colon
[18] = system: HCT-15 colon
[19] = system: DLD-1 colon
[20] = system: SW-620 colon
[21] = system: SK-OV-3 ovarian
[22] = system: MALME-3M melanoma
[23] = system: UO-31 renal
[24] = system: COLO 205 colon
[25] = system: NCI-H460 lung
[26] = system: SF-268 CNS
[27] = system: EKVX NSCLC
[28] = system: LOX IMVI melanoma
[29] = system: SNB-19 CNS
[30] = system: SN12C renal
[31] = system: CCRF-CEM leukemia
[32] = system: HCT-116 colon
[33] = system: SK-MEL-2 melanoma
[34] = system: RPMI-8226 leukemia
[35] = system: HL-60(TB) leukemia
[36] = system: U251 CNS
[37] = system: A549 NSCLC
[38] = system: HOP-62 NSCLC
[39] = system: KM12 colon
[40] = system: NCI-H522 lung
[41] = system: LXFL 529 NSCLC
[42] = system: DMS 114 small cell lung
[43] = system: RXF 393 renal
[44] = system: UACC-257 melanoma
[45] = system: NCI-H226 lung
[46] = system: ACHN renal
[47] = system: CAKI-1 renal
[48] = system: OVCAR-4 ovarian
[49] = system: SR leukemia
[50] = system: SNB-78 CNS
[51] = system: SNB-75 CNS
[52] = system: SK-MEL-28 melanoma
[53] = system: NCI-H23 lung
[54] = system: HCC-2998 colon
[55] = system: SF-295 CNS
[56] = system: SF-539 CNS
[57] = system: M19-MEL melanoma
[58] = system: IGROV1 ovarian

Compound `NC(CCC(=O)Nc1ccc(O)cc1)C(=O)O` (stereo not given) has a TGI [1] of over 100 µM, a TGI [2] of over 100 µM and a TGI [3] of over 100 µM. For the same compound, the TGI [4] was over 100 µM, the TGI [5] was over 100 µM and the TGI [6] was over 100 µM. The TGI [7] was over 100 µM, the TGI [8] was over 100 µM and the TGI [9] was over 100 µM. The TGI [10] was over 100 µM, the TGI [11] was over 100 µM and the TGI [12] was over 100 µM. It also gave a TGI [13] of over 100 µM, a TGI [14] of over 100 µM and a TGI [15] of over 100 µM. For the same compound, the TGI [16] was over 100 µM, the TGI [17] was over 100 µM and the TGI [18] was over 100 µM. The TGI [19] was over 100 µM, the TGI [20] was over 100 µM and the TGI [21] was over 100 µM. It also gave a TGI [22] of over 100 µM, a TGI [23] of over 100 µM and a TGI [24] of over 100 µM. It also gave a TGI [25] of over 100 µM, a TGI [26] of over 100 µM and a TGI [27] of over 100 µM. The TGI [28] was over 100 µM, the TGI [29] was over 100 µM and the TGI [30] was over 100 µM. The TGI [31] was over 100 µM, the TGI [32] was over 100 µM and the TGI [33] was over 100 µM. For the same compound, the TGI [34] was over 100 µM, the TGI [35] was over 100 µM and the TGI [36] was over 100 µM. It also gave a TGI [37] of over 100 µM, a TGI [38] of over 100 µM and a TGI [39] of over 100 µM. For the same compound, the TGI [40] was over 100 µM, the TGI [41] was over 100 µM and the TGI [42] was over 100 µM. For the same compound, the TGI [43] was over 100 µM, the TGI [44] was over 100 µM and the TGI [45] was over 100 µM. The TGI [46] was over 100 µM, the TGI [47] was over 100 µM and the TGI [48] was over 100 µM. It also gave a TGI [49] of over 100 µM, a TGI [50] of over 100 µM and a TGI [51] of over 100 µM. The TGI [52] was over 100 µM.
`COC(c1ccccc1)C(c1ccccc1)N1CCOCC1` (stereo not given) gave a TGI [1] of over 100 µM, a TGI [2] of over 100 µM and a TGI [3] of over 100 µM. It also gave a TGI [4] of over 100 µM, a TGI [53] of over 100 µM and a TGI [5] of over 100 µM. The TGI [6] was over 100 µM, the TGI [7] was over 100 µM and the TGI [8] was over 100 µM. The TGI [9] was over 100 µM, the TGI [10] was over 100 µM and the TGI [11] was over 100 µM. The TGI [54] was over 100 µM, the TGI [12] was over 100 µM and the TGI [13] was over 100 µM. For the same compound, the TGI [14] was over 100 µM, the TGI [15] was over 100 µM and the TGI [16] was over 100 µM. For the same compound, the TGI [17] was over 100 µM, the TGI [19] was over 100 µM and the TGI [55] was over 100 µM. For the same compound, the TGI [20] was over 100 µM, the TGI [21] was over 100 µM and the TGI [22] was over 100 µM. For the same compound, the TGI [23] was over 100 µM, the TGI [24] was over 100 µM and the TGI [25] was over 100 µM. The TGI [26] was over 100 µM, the TGI [27] was over 100 µM and the TGI [28] was over 100 µM. The TGI [29] was over 100 µM, the TGI [56] was over 100 µM and the TGI [30] was over 100 µM. It also gave a TGI [57] of over 100 µM, a TGI [31] of over 100 µM and a TGI [32] of over 100 µM. For the same compound, the TGI [33] was over 100 µM, the TGI [34] was over 100 µM and the TGI [35] was over 100 µM. It also gave a TGI [36] of over 100 µM, a TGI [37] of over 100 µM and a TGI [38] of over 100 µM. The TGI [39] was over 100 µM, the TGI [40] was over 100 µM and the TGI [41] was over 100 µM. For the same compound, the TGI [42] was over 100 µM, the TGI [43] was over 100 µM and the TGI [44] was over 100 µM. For the same compound, the TGI [45] was over 100 µM, the TGI [46] was over 100 µM and the TGI [47] was over 100 µM. It also gave a TGI [48] of over 100 µM, a TGI [50] of over 100 µM and a TGI [51] of over 100 µM. The TGI [52] was over 100 µM and the TGI [58] was over 100 µM.
`O=C(CC(=O)n1nc(-c2ccccc2)c(N=Nc2ccccc2Cl)c1-c1ccccc1)Nc1ccc(Cl)cc1` showed a TGI [1] of over 100 µM, a TGI [2] of over 100 µM and a TGI [3] of over 100 µM. The TGI [4] was over 100 µM, the TGI [53] was over 100 µM and the TGI [5] was over 100 µM. For the same compound, the TGI [6] was over 100 µM, the TGI [7] was over 100 µM and the TGI [8] was over 100 µM. It also gave a TGI [9] of over 100 µM, a TGI [10] of over 100 µM and a TGI [11] of over 100 µM. For the same compound, the TGI [54] was over 100 µM, the TGI [12] was over 100 µM and the TGI [13] was over 100 µM. The TGI [14] was over 100 µM, the TGI [15] was over 83.4 µM and the TGI [16] was over 85.8 µM. For the same compound, the TGI [17] was over 89.5 µM, the TGI [18] was over 59.9 µM and the TGI [19] was over 65.2 µM. It also gave a TGI [55] of over 100 µM, a TGI [20] of over 74 µM and a TGI [21] of over 100 µM. The TGI [22] was over 100 µM, the TGI [23] was over 100 µM and the TGI [24] was over 64 µM. It also gave a TGI [25] of over 78.2 µM, a TGI [26] of over 100 µM and a TGI [27] of over 100 µM. For the same compound, the TGI [28] was over 59.7 µM, the TGI [29] was over 100 µM and the TGI [56] was over 100 µM. The TGI [30] was over 100 µM, the TGI [57] was 45.7 µM and the TGI [31] was over 68.5 µM. It also gave a TGI [32] of over 55.8 µM, a TGI [33] of over 100 µM and a TGI [34] of over 66.1 µM. The TGI [35] was over 60.5 µM, the TGI [36] was over 55.6 µM and the TGI [37] was over 79.8 µM. The TGI [38] was over 100 µM, the TGI [39] was over 100 µM and the TGI [40] was over 100 µM. For the same compound, the TGI [41] was over 100 µM, the TGI [42] was over 56.6 µM and the TGI [43] was over 100 µM. The TGI [44] was over 100 µM, the TGI [45] was over 100 µM and the TGI [46] was over 100 µM. The TGI [47] was over 100 µM, the TGI [48] was over 100 µM and the TGI [49] was over 100 µM. For the same compound, the TGI [51] was over 100 µM, the TGI [52] was over 100 µM and the TGI [58] was over 100 µM.

From PubChem BioAssay (NCI)
